Structures are written as SMILES. Where two headings read alike, the source gives them in different places.

The target in the test is native CB1 receptors (Rattus norvegicus, UniProt P20272). The test can be described thus: CB1 receptor rat binding assay ([3H]SR141716A, rat brain membranes). Particulars: rat brain membranes.
Setting [1] is: [3H]SR141716A, read-out: Binding rat pKi (converted).

Sequence of native CB1 receptors (P20272 whole entry): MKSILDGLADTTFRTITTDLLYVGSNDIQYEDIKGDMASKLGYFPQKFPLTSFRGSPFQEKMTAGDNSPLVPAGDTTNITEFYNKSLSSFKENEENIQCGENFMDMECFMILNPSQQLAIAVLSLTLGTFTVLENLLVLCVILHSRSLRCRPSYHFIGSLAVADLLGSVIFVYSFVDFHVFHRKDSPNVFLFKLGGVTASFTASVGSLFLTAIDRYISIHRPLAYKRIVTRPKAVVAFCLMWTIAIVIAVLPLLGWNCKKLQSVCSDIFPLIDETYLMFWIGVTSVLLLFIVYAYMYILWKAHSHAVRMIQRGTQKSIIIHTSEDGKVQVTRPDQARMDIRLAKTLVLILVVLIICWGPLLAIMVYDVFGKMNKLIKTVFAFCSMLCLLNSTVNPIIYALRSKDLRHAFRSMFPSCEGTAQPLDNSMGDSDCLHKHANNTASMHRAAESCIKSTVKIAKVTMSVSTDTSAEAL

`CCCC1=Nc2cc(C(=O)NCCc3ccc(OC)cc3OC)ccc2Sc2ccccc21` [drawing 1536]: the Ki under setting [1] was 79.4 nM.

`CC(C)CCNC(=O)c1ccc2c(c1)N=C(c1ccc(F)cc1)c1ccccc1S2` [drawing 1330]: the “Binding rat Inh %” value ([3H]SR141716A) is on record as 91%. Moreover, the Ki under setting [1] was 3.98 nM. The matching figures for `Cc1csc(CNC(=O)c2ccc3c(c2)N=C(c2ccsc2)c2ccccc2S3)c1` [drawing 1313]: 106% and 3.16 nM. The matching figures for `CCCNC(=O)c1ccc2c(c1)N=C(c1cccc(Cl)c1)c1ccccc1S2` [drawing 1189]: 86% and 12.6 nM.

Regarding `C[C@@H]1CCC[C@H](C)N1NC(=O)c1ccc2c(c1)N=C(c1ccc(Cl)cc1F)c1ccccc1S2` [drawing 1474], the “Binding rat Inh %” value ([3H]SR141716A) is recorded as 71%. For the same compound, under setting [1], the Ki is 7.94 nM. As to `O=C(NCc1cccc(Cl)c1)c1ccc2c(c1)N=C(c1ccc(F)cc1)c1ccccc1S2` [drawing 1266], the Ki under setting [1] was 1.58 nM. Still for that read-out and setting: the same measure for `CCCC1=Nc2cc(C(=O)NCC(C)c3ccccc3)ccc2Sc2ccccc21` (centres unmarked) [drawing 1395]: 31.6 nM; for `CC(CNC(=O)c1ccc2c(c1)N=C(C1CCCCC1)c1ccccc1S2)c1ccccc1` (centres unmarked) [drawing 1329]: 3.16 nM. With `O=C(NN1CCCCC1)c1ccc2c(c1)N=C(c1ccc(Cl)s1)c1ccccc1S2` [drawing 1385], the “Binding rat Inh %” value ([3H]SR141716A) was 88%. The Ki under setting [1] was 5.01 nM.

Consider `Cc1ccc(N2CCN(C(=O)c3ccc4c(c3)N=C(Cl)c3ccccc3S4)CC2)c(C)c1` [Example 12], for which the Ki (3 nM [3H]SR141716A, read-out: Rat Brain pKi (converted)) is 251 nM. In the case of `O=C(NCCc1ccncc1)c1ccc2c(c1)N=C(c1ccc(F)cc1)c1ccccc1S2` [drawing 1220], the “Binding rat Inh %” value ([3H]SR141716A) is recorded as 103%. Further, the Ki under setting [1] was 15.8 nM. As to `CCCNC(=O)c1ccc2c(c1)N=C(c1ccc(Br)cc1)c1ccccc1S2` [drawing 1259], the “Binding rat Inh %” value ([3H]SR141716A) is reported as 65%. In addition, the Ki under setting [1] was 15.8 nM. As to `O=C(NCCc1ccc(Cl)cc1)c1ccc2c(c1)N=C(c1cccc(Cl)c1)c1ccccc1S2` [drawing 1281], the Ki under setting [1] was 2 nM. `CCOCCNC(=O)c1ccc2c(c1)N=C(c1ccc(F)cc1)c1ccccc1S2` [drawing 1446]: where the note is “[3H]SR141716A”, the “Binding rat Inh %” value is reported as 63%. The Ki under setting [1] was 50.1 nM. For the compound `CC(CNC(=O)c1ccc2c(c1)N=C(c1ccc(Cl)cc1)c1ccccc1S2)c1ccccc1` (centres unmarked) [drawing 1288], the Ki under setting [1] is 2 nM. Turning to `CCCC1=Nc2cc(C(=O)NC(C)C34C[C@H]5C[C@@H](C3)C[C@@H](C4)C5)ccc2Sc2ccccc21` (some centres unmarked), the Ki under setting [1] was 25.1 nM. On the same count and under the same terms, with `CCCC1=Nc2cc(C(=O)NCCN(CC)c3ccccc3)ccc2Sc2ccccc21` [drawing 1292] the figure was 20 nM.

On to `CCOCCNC(=O)c1ccc2c(c1)N=C(c1ccc(Br)cc1)c1ccccc1S2` [drawing 1404], for which the “Binding rat Inh %” value ([3H]SR141716A) came out at 81%. Moreover, the Ki under setting [1] is 39.8 nM. Take `CCC1=Nc2cc(C(=O)NCCc3ccc(OC)c(OC)c3)ccc2Sc2ccccc21`: under setting [1], the Ki is 63.1 nM.

With `CCOCCNC(=O)c1ccc2c(c1)N=C(c1ccc(Cl)cc1)c1ccccc1S2` [drawing 1504], where the note is “[3H]SR141716A”, the “Binding rat Inh %” value worked out at 71%. Further, the Ki under setting [1] is 79.4 nM. Take `O=C(NCCc1cccc(Cl)c1)c1ccc2c(c1)N=C(c1cccc(Cl)c1)c1ccccc1S2` [drawing 1331]: the Ki under setting [1] was 25.1 nM.

Consider `O=C(NCCCc1ccccc1)c1ccc2c(c1)N=C(N1CCCCC1)c1ccccc1S2` [drawing 1533], for which, under setting [1], the Ki was 10 nM. As to `O=C(NC1CCCC1)c1ccc2c(c1)N=C(c1ccc(Cl)c(Cl)c1)c1ccccc1S2` [drawing 1399], where the note is “[3H]SR141716A”, the “Binding rat Inh %” value came to 78%. Also, under setting [1], the Ki was 5.01 nM. The matching figures for `O=C(NC1CCCCC1)c1ccc2c(c1)N=C(c1ccccc1F)c1ccccc1S2` [drawing 1539]: 83% and 12.6 nM. The matching figures for `CCCCNC(=O)c1ccc2c(c1)N=C(c1ccc(Cl)cn1)c1cc(F)ccc1S2` [drawing 1230]: 83% and 15.8 nM. The matching figures for `Cc1ccc(CNC(=O)c2ccc3c(c2)N=C(c2cccc(F)c2)c2ccccc2S3)o1` [drawing 1481]: 88% and 10 nM.

As to `O=C(NCCc1ccncc1)c1ccc2c(c1)N=C(c1ccc(Cl)s1)c1ccccc1S2` [drawing 1540], under “[3H]SR141716A”, the “Binding rat Inh %” value turned out to be 109%. Moreover, under setting [1], the Ki is 12.6 nM. In the case of `O=C(NCCc1ccccn1)c1ccc2c(c1)N=C(c1ccc(F)cc1)c1ccccc1S2` [drawing 1411], the “Binding rat Inh %” value ([3H]SR141716A) is given as 85%. Moreover, the Ki under setting [1] was 39.8 nM. `O=C(NCCc1ccc(Cl)cc1)c1ccc2c(c1)N=C(c1ccc(F)cc1)c1ccccc1S2` [drawing 1367]: under setting [1], the Ki is 3.98 nM. For the compound `O=C(NC1CCC(F)(F)CC1)c1ccc2c(c1)N=C(c1ccsc1)c1ccccc1S2`, under “[3H]SR141716A”, the “Binding rat Inh %” value is listed as 92%. Besides, the Ki under setting [1] is 3.16 nM. As for `O=C(NCc1ccc(Cl)cc1Cl)c1ccc2c(c1)N=C(c1ccccc1)c1ccccc1S2` [drawing 1204], the Ki under setting [1] is 12.6 nM. Take `CC(C)NC(=O)c1ccc2c(c1)N=C(c1ccc(Cl)cc1)c1ccccc1S2` [drawing 1372]: the “Binding rat Inh %” value ([3H]SR141716A) came out at 90%. In addition, the Ki under setting [1] was 31.6 nM. For the compound `O=C(NCc1cccc(Cl)c1)c1ccc2c(c1)N=C(c1cccc(Cl)c1)c1ccccc1S2` [drawing 1264], the Ki under setting [1] is 1.58 nM.

Take `O=C(NCc1ccco1)c1ccc2c(c1)N=C(c1ccc(F)cc1)c1ccccc1S2` [drawing 1370]: the “Binding rat Inh %” value ([3H]SR141716A) was determined as 103%. Moreover, under setting [1], the Ki is 5.01 nM. With `Cc1ccsc1C1=Nc2cc(C(=O)NN3[C@H](C)CCC[C@@H]3C)ccc2Sc2ccccc21` [drawing 1530], where the note is “[3H]SR141716A”, the “Binding rat Inh %” value was 65%. Besides, the Ki under setting [1] is 79.4 nM. `O=C(NCc1cccs1)c1ccc2c(c1)N=C(c1ccccn1)c1ccccc1S2` [drawing 1381]: the “Binding rat Inh %” value ([3H]SR141716A) was found to be 109%. The Ki under setting [1] was 31.6 nM. Consider `CC(C)CNC(=O)c1ccc2c(c1)N=C(c1ccc(Cl)cc1)c1ccccc1S2` [drawing 1314], for which the “Binding rat Inh %” value ([3H]SR141716A) was determined as 92%. The Ki under setting [1] was 3.16 nM. On to `Cc1ccc(CNC(=O)c2ccc3c(c2)N=C(c2ccc(F)cc2)c2ccccc2S3)o1` [drawing 1239], for which the “Binding rat Inh %” value ([3H]SR141716A) stood at 108%. The Ki under setting [1] was 0.794 nM. As for `O=C(NCc1ccc(Cl)cc1Cl)c1ccc2c(c1)N=C(c1ccc(Cl)cc1)c1ccccc1S2` [drawing 1421], the Ki under setting [1] was 39.8 nM. As to `CC(C)CCNC(=O)c1ccc2c(c1)N=C(c1ccccc1F)c1ccccc1S2` [drawing 1509], where the note is “[3H]SR141716A”, the “Binding rat Inh %” value is 85%. In addition, the Ki under setting [1] is 10 nM.

`O=C(NCCC(F)(F)F)c1ccc2c(c1)N=C(c1ccc(Cl)cc1)c1ccccc1S2` [drawing 1360]: the “Binding rat Inh %” value ([3H]SR141716A) was 99%. Moreover, the Ki under setting [1] is 3.98 nM. With `Cc1ccsc1C1=Nc2cc(C(=O)NCCc3cccnc3)ccc2Sc2ccccc21` [drawing 1521], the “Binding rat Inh %” value ([3H]SR141716A) was determined as 93%. The Ki under setting [1] is 79.4 nM.

In the case of `CCCCNC(=O)c1ccc2c(c1)N=C(c1ccccc1F)c1ccccc1S2` [drawing 1348], under setting [1], the Ki is 25.1 nM. Take `O=C(NC1CCCC1)c1ccc2c(c1)N=C(c1cccc(F)c1)c1ccccc1S2` [drawing 1310]: the “Binding rat Inh %” value ([3H]SR141716A) came to 82%. Besides, under setting [1], the Ki is 25.1 nM.

The record behind these values is patent publication US20080090805A1, “CB-1 MODULATING COMPOUNDS AND THEIR USE” (ACADIA PHARMACEUTICALS INC., priority 2005, published 2008).
